In publication PMC2693909 (Journal of molecular biology, 2009):

Target: Hsc70 NBD (Hsc-70-NBD) (Bos taurus, UniProt P19120)
Experiment: […]-1H NMR chemical shift differences, ATP versus ADP.Pi state
Format: binding
Conditions: neutral aqueous solution

Sequence of Hsc70 NBD (Hsc-70-NBD) (P19120 1-383 limits assumed): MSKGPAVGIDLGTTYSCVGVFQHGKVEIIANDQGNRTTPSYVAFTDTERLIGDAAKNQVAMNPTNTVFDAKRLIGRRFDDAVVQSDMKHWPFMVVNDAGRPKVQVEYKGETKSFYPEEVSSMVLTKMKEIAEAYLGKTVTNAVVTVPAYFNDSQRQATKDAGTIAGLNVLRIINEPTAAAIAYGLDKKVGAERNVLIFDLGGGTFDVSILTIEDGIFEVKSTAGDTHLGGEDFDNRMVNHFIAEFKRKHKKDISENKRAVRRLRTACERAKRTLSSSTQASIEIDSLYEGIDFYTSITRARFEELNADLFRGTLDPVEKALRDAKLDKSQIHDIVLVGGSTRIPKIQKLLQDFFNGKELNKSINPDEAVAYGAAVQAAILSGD

## Nc1ncnc2c1ncn2[C@@H]1O[C@H](COP(=O)(O)OP(=O)(O)O)[C@@H](O)[C@H]1O [ADP]
ADP.Pi state
  15N-1H NMR chemical shift differences, ATP versus ADP.Pi state: NMR spectra of the isolated NBD of Hsc70 between the ADP.Pi and ATP state

## Nc1ncnc2c1ncn2[C@@H]1O[C@H](COP(=O)(O)OP(=O)(O)OP(=O)(O)O)[C@@H](O)[C@H]1O [ATP]
ATP state
  15N-1H NMR chemical shift differences, ATP versus ADP.Pi state: NMR spectra of the isolated NBD of Hsc70 between the ADP.Pi and ATP state
